Legend:
D2 receptor = D2 receptor (Homo sapiens, UniProt P14416); test: PET study, D2 receptor occupancy (11C-raclopride tracer); format: in vivo; details: healthy subjects, read-out: D2 receptor occupancy in the putamen
D1 receptor = D1 receptor (Homo sapiens, UniProt P21728); test: PET study, D1 receptor occupancy (11C-SCH23390 tracer); format: in vivo; details: healthy subjects, read-out: D1 receptor occupancy in putamen
rats = test: condition avoidance response (CAR) model; format: in vivo, rat; details: at very low levels of D2 receptor occupancy
Description: The compound of formula I is a putative antipsychotic compound with affinity for both dopamine D1 and D2 receptors.

[1] = test system: subchronic PCP treated rats; test: attentional set-shifting in subchronic PCP rat disease model (executive functioning); format: in vivo; details: for EDS discrimination performance (trials to criterion) vs PCP+vehicle group: 30 min before test
Description: The attentional set-shifting paradigm is an animal model which allows assessment of executive functioning via intra-dimensional (ID) versus extra-dimensional (ED) shift discrimination learning. A schizophrenia-disease-like animal model with subchronic phencyclidine (PCP) administration plus washout period is applied.
Accordingly, the cognitive enhancing properties of a compound can be investigated by testing whether the compound is attenuating the “attentional performance impairment” induced by subchronic PCP administration in rats.
Methodology. In vivo assessment of “attentional set-shifting performance” was conducted as described by Rodefer et al. (Eur. J. Neurosci. 21:1070-1076 (2005)), and was based on a modified version of the task designed by Birrell & Brown (J. Neurosci. 20:4320-4324 (2000)). Briefly, Male Long-Evans rats (Harlan, Indianapolis, Ind.) weighing approximately 250 g at the beginning of the study in four groups (n=12 each group) were used. After habituating to the colony room environment, rats received a series of subchronic injections of PCP (5 mg/kg, i.p.) or saline twice daily for 7 days, followed by a washout period of 10 days before beginning the set-shifting procedure in which animals were required to dig in a pot to retrieve a food reward (half of a Honey Nut Cheerio® (General Mills, Minneapolis, Minn., USA)) using either digging medium or scented odor as the dimensional cue. The test chamber was a Plexiglas® box (50×37.5×25 cm) with an opaque barrier separating one-third of the box from the rest (along the long axis of the box). […]
Habituation was performed for several days before testing; a pot filled with wood chip bedding used in the rats' home cages and baited with several Cheerios® was placed in each rat's cage, to accustom them to retrieving food rewards from the pots. […] The rats therefore could investigate the digging medium with paws or snout before executing a “dig” response, and these choices were not scored. […]

[2] = test system: sub-chronic PCP treated rats; test: novel object recognition (NOR) test in sub-chronic PCP treated rats; format: in vivo, rat
Procedure: The NOR test was performed as described in the above cited reference (Grayson 2007).
Acquisition trial. […] Data are expressed as mean±s.e.m. (n=9-10 per group) and were analysed by ANOVA and post-hoc student's t-test.
Retention trial. […] Data are expressed as mean±s.e.m. (n=9-10 per group) and were analysed by ANOVA and post-hoc student's t-test.
Data are expressed as the mean±s.e.m. (n=9-10 per group) and were analysed using ANOVA followed by post-hoc Dunnett's t-test.
Locomotor activity. […] Data are expressed as mean±s.e.m (n=9-10 per group) and were analysed by ANOVA and post-hoc Dunnett's t-test.

dopamine D1 receptors = dopamine D1 receptors (Homo sapiens, UniProt P21728); details: WO 2005/016900; cited from earlier work
Sequence of dopamine D1 receptors (P21728 whole entry): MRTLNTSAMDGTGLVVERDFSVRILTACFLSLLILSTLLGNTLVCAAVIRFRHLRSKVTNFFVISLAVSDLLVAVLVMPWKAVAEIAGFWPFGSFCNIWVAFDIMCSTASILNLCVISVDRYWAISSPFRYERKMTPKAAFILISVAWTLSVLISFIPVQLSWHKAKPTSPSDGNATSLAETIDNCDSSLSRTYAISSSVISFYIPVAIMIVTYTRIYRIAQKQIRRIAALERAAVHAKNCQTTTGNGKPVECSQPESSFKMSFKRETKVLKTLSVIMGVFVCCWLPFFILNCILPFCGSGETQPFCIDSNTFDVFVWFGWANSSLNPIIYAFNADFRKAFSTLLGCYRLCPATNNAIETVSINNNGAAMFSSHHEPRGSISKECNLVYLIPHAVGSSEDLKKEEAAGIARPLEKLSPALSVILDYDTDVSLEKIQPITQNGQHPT

dopamine D2 receptors = dopamine D2 receptors (Homo sapiens, UniProt P14416); details: WO 2005/016900; cited from earlier work
Sequence of dopamine D2 receptors (P14416 whole entry): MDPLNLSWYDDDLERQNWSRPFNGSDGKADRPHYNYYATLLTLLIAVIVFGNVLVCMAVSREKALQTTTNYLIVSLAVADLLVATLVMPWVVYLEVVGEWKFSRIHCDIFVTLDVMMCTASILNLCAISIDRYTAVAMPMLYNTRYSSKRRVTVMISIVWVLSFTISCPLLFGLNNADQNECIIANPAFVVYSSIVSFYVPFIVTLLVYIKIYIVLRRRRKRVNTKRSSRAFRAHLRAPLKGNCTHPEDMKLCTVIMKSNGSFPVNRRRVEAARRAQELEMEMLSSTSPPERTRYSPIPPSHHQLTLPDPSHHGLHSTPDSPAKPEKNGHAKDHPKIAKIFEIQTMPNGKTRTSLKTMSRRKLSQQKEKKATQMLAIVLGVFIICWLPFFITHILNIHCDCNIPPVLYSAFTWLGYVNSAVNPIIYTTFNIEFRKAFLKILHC

5-HT2 receptor = details: WO 2005/016900; cited from earlier work
α1 adrenoceptors = details: WO 2005/016900; cited from earlier work
[3] = test system: subchronic PCP treated rats; details: given acutely; Rodefer et al. (2008); cited from earlier work
[4] = 2 mg/day given daily for 18 days
[5] = 10 mg/day given daily for 18 days

Sequence of D2 receptor (P14416 whole entry): as above
Sequence of D1 receptor (P21728 whole entry): as the sequence (P21728 whole entry) above

**Q.** With CN1CCN([C@@H]2C[C@@H](c3ccccc3)c3ccc(Cl)cc32)CC1(C)C [Compound I, trans-4-((1R,3S)-6-chloro-3-phenylindan-1-yl)-1,2,2-trimethylpiperazine] as the compound, how does the receptor occupancy at 2 mg (D2 receptor; [4]) read?
**A.** The receptor occupancy at 2 mg was 11%.

**Q.** And the receptor occupancy at 10 mg (D2 receptor; [5])?
**A.** Its receptor occupancy at 10 mg is 43%.

**Q.** What about the receptor occupancy at 2 mg (D1 receptor; [4]) of the same compound?
**A.** Its receptor occupancy at 2 mg is 32%.

**Q.** And the receptor occupancy at 10 mg (D1 receptor; [5])?
**A.** Its receptor occupancy at 10 mg is 69%.

**Q.** What about the “antipsychotic activity in CAR model” value (rats) of the same compound?
**A.** Its value is “possesses antipsychotic activity”.

**Q.** What about the “EDS discrimination performance (trials to criterion) vs PCP+vehicle group” value ([1]; 1.25 mg/kg s.c., t=3.09, p<0.05) of the same compound?
**A.** Its value is “significantly attenuated”.

**Q.** What about the “EDS discrimination performance (trials to criterion) vs PCP+vehicle group” value ([1]; 2.5 mg/kg s.c., t=3.80, p<0.01) of the same compound?
**A.** The value was “significantly attenuated”.

**Q.** And the “behavior on all other discrimination problems” value ([1]; 1.25 or 2.5 mg/kg s.c., all ps>0.05)?
**A.** The value was “No evidence was found that either dose of Compound I impacted behavior”.

**Q.** What about the “locomotor activity (total number of line crossings)” value ([2]; 2.5 mg/kg s.c., p<0.05 compared to vehicle) of the same compound?
**A.** The value was “significantly reduced”.

**Q.** What about the “time spent exploring the identical objects, acquisition phase” value ([2]; acute 0.5-2.5 mg/kg s.c.) of the same compound?
**A.** Its value is “no significant difference”.

**Q.** What about the “sub-chronic PCP-induced impairment, novel vs familiar object exploration, retention phase” value ([2]; acute, all three doses 0.5, 1.25, 2.5 mg/kg s.c.) of the same compound?
**A.** The value was “significantly attenuated”.

**Q.** What about the “affinity for dopamine D1 receptors (antagonist)” value (dopamine D1 receptors) of the same compound?
**A.** Its value is “high affinity”.

**Q.** And the “affinity for dopamine D2 receptors (antagonist)” value (dopamine D2 receptors)?
**A.** Its value is “high affinity”.

**Q.** And the “affinity for the 5-HT2 receptor (antagonist)” value (5-HT2 receptor)?
**A.** Its value is “high affinity”.

**Q.** What about the “affinity for α1 adrenoceptors” value (α1 adrenoceptors) of the same compound?
**A.** Its value is “high affinity”.

**Q.** Which “PCP-induced reduction of discrimination index” value ([2]; 2.5 mg/kg i.p.) does the source give for CN1CCN(C2=Nc3cc(Cl)ccc3Nc3ccccc32)CC1 [clozapine, reference compound] here?
**A.** Its value is “no significant effect”.

**Q.** With O=C(CCCN1CCC(O)(c2ccc(Cl)cc2)CC1)c1ccc(F)cc1 [haloperidol] as the compound, how does the “reversing PCP-disrupted attentional performance” value [3] read?
**A.** The value was “ineffective”.

**Q.** For Cc1nc2n(c(=O)c1CCN1CCC(c3noc4cc(F)ccc34)CC1)CCCC2 [risperidone], which “reversing PCP-disrupted attentional performance” value [3] is on record?
**A.** Its value is “ineffective”.

Source: patent US20110207744A1, “Method for treating cognitive deficits” (H. Lundbeck A/S, priority 2008, published 2011)
